According to ChEMBL document CHEMBL1149505 (Bioorg Med Chem Lett, 2006):

Legend:
[1] = biological target: Neuronal acetylcholine receptor subunit alpha-7 (Rattus norvegicus, UniProt Q05941); test: Inhibition of [3H]MLA binding to alpha-7 nAChR in rat brain membrane; format: cell membranes
[2] = biological target: Sodium-dependent serotonin transporter (Rattus norvegicus, UniProt P31652); test: Inhibition of [3H]5-HT uptake at SERT in rat hippocampal synaptosomes; format: subcellular, Hippocampus
[3] = biological target: Neuronal acetylcholine receptor; alpha4/beta2 (Rattus norvegicus, UniProt P09483+P12390); test: Inhibition of [3H]NIC binding to alpha-4-beta-2 nAChR in rat brain membrane; format: cell membranes
[4] = biological target: Sodium-dependent dopamine transporter (Rattus norvegicus, UniProt P23977); test: Inhibition of [3H]DA uptake at DAT in rat striatal synaptosomes; format: subcellular, Brain
[5] = biological target: Synaptic vesicular amine transporter (Rattus norvegicus, UniProt Q01827); test: Inhibition of [3H]DTBZ binding to VMAT2 in rat synaptic vesicle membrane; format: cell membranes
Synaptic vesicular amine transporter, sequence (Q01827 whole entry): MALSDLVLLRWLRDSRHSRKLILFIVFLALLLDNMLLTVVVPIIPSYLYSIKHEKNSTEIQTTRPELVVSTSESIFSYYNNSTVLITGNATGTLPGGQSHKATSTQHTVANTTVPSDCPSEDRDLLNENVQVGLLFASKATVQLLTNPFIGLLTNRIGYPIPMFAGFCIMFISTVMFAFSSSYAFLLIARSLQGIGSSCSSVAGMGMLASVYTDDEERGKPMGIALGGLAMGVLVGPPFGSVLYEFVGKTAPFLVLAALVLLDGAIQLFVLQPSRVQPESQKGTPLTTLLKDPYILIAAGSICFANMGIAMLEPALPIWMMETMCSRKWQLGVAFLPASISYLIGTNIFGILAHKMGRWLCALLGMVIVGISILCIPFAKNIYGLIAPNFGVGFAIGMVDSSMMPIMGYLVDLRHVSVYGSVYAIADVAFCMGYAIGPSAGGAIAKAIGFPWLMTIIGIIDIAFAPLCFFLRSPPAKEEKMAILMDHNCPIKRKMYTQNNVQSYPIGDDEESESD

Sodium-dependent serotonin transporter, sequence (P31652 whole entry): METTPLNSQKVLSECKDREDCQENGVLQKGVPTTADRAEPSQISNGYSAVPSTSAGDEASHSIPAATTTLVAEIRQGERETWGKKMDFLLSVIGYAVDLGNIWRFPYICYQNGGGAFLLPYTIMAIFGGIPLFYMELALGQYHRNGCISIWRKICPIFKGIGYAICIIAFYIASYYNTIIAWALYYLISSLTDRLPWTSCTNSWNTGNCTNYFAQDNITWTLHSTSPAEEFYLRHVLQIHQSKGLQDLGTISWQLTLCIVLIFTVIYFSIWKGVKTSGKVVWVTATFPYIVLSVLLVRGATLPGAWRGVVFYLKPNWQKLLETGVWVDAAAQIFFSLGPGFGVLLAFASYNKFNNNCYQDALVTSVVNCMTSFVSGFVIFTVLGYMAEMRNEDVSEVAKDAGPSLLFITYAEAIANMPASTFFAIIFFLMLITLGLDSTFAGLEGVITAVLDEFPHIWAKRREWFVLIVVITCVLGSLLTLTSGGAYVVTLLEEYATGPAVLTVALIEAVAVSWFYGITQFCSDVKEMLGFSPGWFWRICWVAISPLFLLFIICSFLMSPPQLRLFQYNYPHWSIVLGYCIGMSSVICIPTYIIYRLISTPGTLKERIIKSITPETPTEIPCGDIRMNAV
Sodium-dependent dopamine transporter, sequence (P23977 whole entry): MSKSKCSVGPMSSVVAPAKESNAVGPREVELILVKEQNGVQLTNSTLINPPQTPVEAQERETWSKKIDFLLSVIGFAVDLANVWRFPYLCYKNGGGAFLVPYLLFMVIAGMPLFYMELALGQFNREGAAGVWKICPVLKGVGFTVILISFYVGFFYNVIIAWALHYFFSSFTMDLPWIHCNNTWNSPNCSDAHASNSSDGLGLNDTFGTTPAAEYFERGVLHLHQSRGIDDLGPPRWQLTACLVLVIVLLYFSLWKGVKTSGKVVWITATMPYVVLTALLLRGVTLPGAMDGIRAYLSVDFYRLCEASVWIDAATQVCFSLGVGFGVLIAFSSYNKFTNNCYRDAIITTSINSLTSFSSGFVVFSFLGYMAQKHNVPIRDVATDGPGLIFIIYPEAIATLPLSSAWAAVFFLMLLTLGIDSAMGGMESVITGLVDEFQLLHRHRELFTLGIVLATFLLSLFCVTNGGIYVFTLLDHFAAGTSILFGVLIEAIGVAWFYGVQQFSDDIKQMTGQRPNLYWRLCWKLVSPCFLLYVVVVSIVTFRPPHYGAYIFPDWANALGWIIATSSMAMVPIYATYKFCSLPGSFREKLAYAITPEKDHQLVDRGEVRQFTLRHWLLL
Neuronal acetylcholine receptor; alpha4/beta2, sequence (P09483 whole entry): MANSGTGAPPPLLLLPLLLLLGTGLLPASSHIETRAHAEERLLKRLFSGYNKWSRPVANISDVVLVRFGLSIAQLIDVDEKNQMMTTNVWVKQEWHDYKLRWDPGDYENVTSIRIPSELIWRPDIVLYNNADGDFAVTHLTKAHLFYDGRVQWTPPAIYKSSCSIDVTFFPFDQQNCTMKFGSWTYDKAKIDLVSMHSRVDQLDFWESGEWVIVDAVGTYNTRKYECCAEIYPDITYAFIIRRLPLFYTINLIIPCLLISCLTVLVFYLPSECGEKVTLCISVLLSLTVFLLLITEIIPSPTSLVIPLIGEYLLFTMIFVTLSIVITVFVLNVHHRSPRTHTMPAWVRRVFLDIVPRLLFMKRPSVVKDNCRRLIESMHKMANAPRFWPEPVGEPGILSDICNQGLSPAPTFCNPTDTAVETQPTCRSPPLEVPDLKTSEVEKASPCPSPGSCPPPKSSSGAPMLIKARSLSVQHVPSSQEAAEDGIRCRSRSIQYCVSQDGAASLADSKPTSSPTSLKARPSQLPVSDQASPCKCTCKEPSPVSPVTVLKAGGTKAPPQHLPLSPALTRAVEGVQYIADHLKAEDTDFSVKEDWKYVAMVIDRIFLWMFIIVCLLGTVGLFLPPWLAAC
Neuronal acetylcholine receptor; alpha4/beta2, sequence (P12390 whole entry): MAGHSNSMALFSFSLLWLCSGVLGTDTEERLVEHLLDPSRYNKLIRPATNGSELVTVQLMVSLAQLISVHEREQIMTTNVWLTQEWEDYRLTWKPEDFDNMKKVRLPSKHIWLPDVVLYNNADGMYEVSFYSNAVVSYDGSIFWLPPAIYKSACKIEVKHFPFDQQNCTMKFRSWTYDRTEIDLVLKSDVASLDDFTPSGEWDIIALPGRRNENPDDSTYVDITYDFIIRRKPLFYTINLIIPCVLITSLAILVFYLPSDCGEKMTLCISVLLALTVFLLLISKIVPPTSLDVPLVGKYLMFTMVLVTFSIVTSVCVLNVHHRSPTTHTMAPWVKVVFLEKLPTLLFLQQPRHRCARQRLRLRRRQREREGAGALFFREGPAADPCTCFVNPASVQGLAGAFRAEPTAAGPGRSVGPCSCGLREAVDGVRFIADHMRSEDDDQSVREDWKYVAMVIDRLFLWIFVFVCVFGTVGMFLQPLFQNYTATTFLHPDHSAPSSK
Neuronal acetylcholine receptor subunit alpha-7, sequence (Q05941 whole entry): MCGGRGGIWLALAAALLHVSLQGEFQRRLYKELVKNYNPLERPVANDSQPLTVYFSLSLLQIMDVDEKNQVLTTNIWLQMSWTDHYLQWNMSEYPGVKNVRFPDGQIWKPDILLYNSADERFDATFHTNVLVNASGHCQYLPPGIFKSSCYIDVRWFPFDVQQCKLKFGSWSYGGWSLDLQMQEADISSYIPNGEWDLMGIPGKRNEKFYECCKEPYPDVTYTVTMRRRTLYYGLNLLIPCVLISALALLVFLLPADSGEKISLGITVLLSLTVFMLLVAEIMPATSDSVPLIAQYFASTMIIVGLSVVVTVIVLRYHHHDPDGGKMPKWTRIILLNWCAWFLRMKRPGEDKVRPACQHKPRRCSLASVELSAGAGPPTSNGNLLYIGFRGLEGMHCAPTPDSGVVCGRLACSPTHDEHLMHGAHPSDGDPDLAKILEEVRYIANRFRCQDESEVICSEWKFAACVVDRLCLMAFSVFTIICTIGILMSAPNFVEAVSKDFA

| SMILES | Ki [1] | Ki [2] | Ki [3] | Ki [4] | Ki [5] | IC50 [1] | IC50 [3] |
| --- | --- | --- | --- | --- | --- | --- | --- |
| CN1[C@@H](CCc2ccccc2)CCC[C@H]1C[C@H](O)c1ccccc1 | 39300 nM | 4.27 µM | 1.77 µM | 1390 nM | 3.09 µM | – | – |
| CN1[C@@H](CCc2ccccc2)CCC[C@H]1C[C@@H](O)c1ccccc1 | – | 7.3 µM | – | 570 nM | 6.6 µM | > 100 µM | > 100 µM |
| CN1[C@@H](C[C@@H](O)c2ccccc2)CCC[C@H]1/C=C/c1ccccc1 | 1700 nM | 0.044 µM | 4.19 µM | – | – | – | – |
| CN1[C@H](CCc2ccccc2)CCC[C@@H]1C[C@H](O)c1ccccc1 | – | 2.22 µM | 33.6 µM | 1260 nM | 3.01 µM | > 100 µM | – |
| CN1[C@H](CCc2ccccc2)CCC[C@@H]1C[C@@H](O)c1ccccc1 [8R-hydroxylobelane] | 1210 nM | 0.15 µM | 2.36 µM | 1880 nM | 1.98 µM | – | – |
| CN1[C@H](C[C@H](O)c2ccccc2)CCC[C@@H]1/C=C/c1ccccc1 | – | 19 µM | – | 110 nM | – | > 100 µM | – |
| CN1[C@@H](C[C@H](O)c2ccccc2)CCC[C@H]1/C=C/c1ccccc1 | – | 3.75 µM | – | 960 nM | – | > 100 µM | > 100 µM |
| CN1[C@H](C[C@@H](O)c2ccccc2)CCC[C@@H]1/C=C/c1ccccc1 | – | 7.5 µM | – | 290 nM | – | > 100 µM | > 100 µM |
| CCC1(O)CC2c3cc(OC)c(OC)cc3CCN2CC1CC(C)C (configuration not stated) | – | – | – | – | 0.028 µM | – | – |
| CN1[C@@H](CC(=O)c2ccccc2)CCC[C@H]1C[C@H](O)c1ccccc1 [LOBELINE] | – | 46.8 µM | – | 28200 nM | – | – | – |
